Source: patent US9475855B2, “Human Notch3 based fusion proteins as decoy inhibitors of Notch3 signaling” (THE TRUSTEES OF COLUMBIA UNIVERSITY IN THE CITY OF NEW YORK, priority 2008, dated 2016)

Columns and labels:
Assay type in all cases: cell-based, human
[1] = system: Ad-N1IC-transduced HUVEC; assay: Notch-induced HUVEC budding on collagen gel
Experimental: HUVEC were transduced with either Ad-LacZ or Ad-N1IC at 40 MOI. FIGS. 23A-23C show the effect of inhibitors for receptor tyrosine kinases on Notch-induced HUVEC budding. FIG. 23A is a photograph of budding of Ad-N1IC-transduced HUVEC treated with PD166866, ZD1893 at 1 μm and SU5416 at 0.5 μm. […] FIGS. 23D-E show induction of Flt-1 expression in Ad-N1IC-transduced HUVEC. […] FIGS. 23F-G show promotion of Notch-induced HUVEC budding with P1GF stimulation. Ad-N1IC-transduced HUVEC were cultured on collagen gel with SFM, instead of complete medium, in the absence or presence of 50 ng/ml P1GF. […] FIGS. 23H-I show the effect of Flt-1 siRNA transfection on Flt1 expression. Ad-N1IC-transduced HUVEC were transfected with 200 pmol of either control (CT) or Flt-1 siRNA. […] Ad-N1IC-transduced HUVEC were transfected with either 100 or 200 pmol of siRNA and cultured on collagen gel for 2 days.
These Figures show inhibition of budding of Ad-N1IC-transduced HUVEC with treatment of matrix metallo-proteinase inhibitor GM6001. Either Ad-LacZ or Ad-N1IC-HUVEC at a MOI of 40 pfu/cell were cultured on collagen gel for 5 days in the absence or presence of GM6001 at 50 μm.
To test whether Notch signaling is down-stream of VEGF, we evaluated three distinct inhibitors for receptor tyrosine kinases, including VEGFR on N1IC-induced HUVEC budding, because three growth factors existed in complete medium (FIG. 23A-C). […] Thus, we examined whether activation of Notch signaling affected Flt1/VEGFR1 expression in HUVEC, because SU5416 inhibits both Flt1 and Flk1 kinase activity (15). […] P1GF increased the number of Ad-N1IC-HUVEC buds by 150%, compared to the absence of P1GF (FIG. 23F). Moreover, P1GF increased HUVEC buds containing multiple filopodia by 250% (FIG. 23G). […] Transfection with Flt1 siRNA inhibited budding of both Ad-N1IC- and Ad-VEGF-HUVEC to a similar extent (data not shown).

[2] = system: ephrinB2; assay: quantitative RT-PCR of Prox1-induced Notch-target gene ephrinB2 in HUVEC; details: Ad-Prox1 infected HUVEC, 24 hours
Experimental: (§1) HUVEC were infected with adenoviruses encoding LacZ, Prox1, N1Ic or N4/int-3. Compound E(cE), Presenlin inhibitor that inhibits Notch signaling, was incubated for 24 hours on either Ad-LacZ or Ad-Prox1 infected HUVEC and total RNA isolated. Quantitative RT-PCR was performed for the endothelial Notch-target genes, VEGFR-3, EphrinB2, and Hey2. The Prox-1 mediated induction of the Notch target genes, ephrinB2, VEGFR-3 and Hey2 was inhibited by the addition of the Notch signaling inhibitor Compound E. Thus, Prox1 regulates the expression of ephrinB2, VEGFR-3 and Hey2 via Notch.
as §1, with “E, as shown in FIG. 48.” for “E.”

[3] = system: Notch3; assay: quantitative RT-PCR of Prox1-induced Notch3 expression in HUVEC; details: Ad-Prox1 infected HUVEC, 24 hours
Experimental: (A) It was examined if extopic expression of Prox1 would alter the expression of Notch proteins or ligands. Twenty-four hours post adenoviral infection with either Ad-Prox1 or Ad-LacZ, HUVEC total RNA was isolated and quantitative RT-PCR for Notch1-4, Dll4 and Jagged1 performed. […] (B) Compound E (cE), Presenlin inhibitor that inhibits Notch signaling, was incubated for 24 hours on either Ad-LacZ or Ad-Prox1 infected HUVEC. Total RNA was isolated and quantitative PCR performed to determine Notch3 expression.
It was examined if ectopic expression of Prox1 would alter the expression of Notch proteins or ligands. […] Total RNA was isolated and quantitative RT-PCR performed to determine Notch3 expression. Prox1 induced Notch3 expression and this induction was inhibited by the addition of compound E.

[4] = system: Hey2; assay: quantitative RT-PCR of Prox1-induced Notch-target gene Hey2 in HUVEC; details: Ad-Prox1 infected HUVEC, 24 hours
Experimental: as §1
as §1, with “E, as shown in FIG. 48.” for “E.”

[5] = system: VEGFR-3; assay: quantitative RT-PCR of Prox1-induced Notch-target gene VEGFR-3 in HUVEC; details: Ad-Prox1 infected HUVEC, 24 hours
Experimental: as §1
as §1, with “E, as shown in FIG. 48.” for “E.”

[6] = system: HUVEC; assay: HUVEC proliferation (CCK-8 kit); details: SFM with 1% FBS, 4 days (FIG. 26B)
Experimental: These Figures show proliferation of Ad-VEGF165-transduced HUVEC. HUVEC were transduced with Ad-VEGF165 at the indicated dosages. Ad-LacZ was also co-infected to make the same total amount of adenovirus at a MOI of 40 pfu/cell. HUVEC were suspended in SFM supplemented with 1% FBS and then plated at 1×10^4 cells/well in 24-well multi-wll plates with 0.4 ml of medium. After 4 days, cell numbers were determined using the CCK-8 kit and the results are indicated as the ratio of cell numbers determined to the number of control cells, which were transduced with Ad-GFP at a MOI of 40 pfu/cell. […] Ad-VEGF-transduced HUVEC were treated with SU5416 at the indicated dosages.
These Figures show the effect of alteration of Notch signaling on cell proliferation. The cells were transduced with the indicated adenoviruses. Ad-GFP was also co-infected to make the same total amount of adenovirus at a MOI of 60 pfu/cell. After 4 days, cell numbers were determined using the CCK-8 kit and results are indicated as the ratio of cell numbers determined to the number of control cells, which were transduced with AD-GFP at MOI of 60 pfu/cell. […] Transduced HUVEC were suspended in complete medium and then plated at 1×10^4 cells/well in 24-well multiwell plates with 0.4 ml of indicated medium (□: Ad-N1IC; ▪: Ad-N1ECDFc). […]

[7] = system: CBF1 promoter activity; assay: VEGF-induced Notch signaling, CBF1 promoter (CSL-luciferase) reporter activity in HUVEC; details: Ad-VEGF-transduced HUVEC
Experimental: To determine VEGF-induced Notch signaling, HUVEC which were infected with adenovirus were used. HUVEC plated 1-day prior in 6 well plates at 8.0×10^5 were infected with either Ad-LacZ as control or Ad-VEGF at indicated m.o.i. in the presence or absence of Ad-N1ECD/Fc. Two days after infection, infected HUVEC were re-seeded into 24-well plate at 1.5×10^5 cell in triplicate and cultured for 24 hours, and then transfected with 12.5 ng pRL-SV40 (Promega) and 137.5 ng pGA981-6 using Effectene transfection reagent (Qiagen). Cells were harvested either 1 or 2 days post-transfection and luciferase activity was determined by using the Dual-Luciferase® Reporter Assay System (Promega).
One can measure Notch signaling function by measuring transcriptional activity of CBF1 promoter, which is activated by binding of Notch-IC to CBF1. We measured CBF1 promoter activity in HUVEC which was infected with adenovirus encoding VEGF-165 at different MOI (FIG. 6). Induction of CBF1 promoter was clearly detected in Ad-VEGF-infected HUVEC, compared to Ad-LacZ-infected cells in the MOI dependent manner. […] Thus VEGF induced Notch signaling activity.

[8] = receptor tyrosine kinase inhibitors, 1 μM, complete medium

`CNC(=O)[C@H](Cc1c[nH]c2ccccc12)NC(=O)[C@@H](CC(=O)NO)CC(C)C` [GM6001] was tested, and the “budding of Ad-N1IC-HUVEC” value ([1]; GM6001 at 50 μm, collagen gel, 5 days) was “clearly decreased” and the “budding of Ad-N1IC-HUVEC” value ([1]; fibrin gel (data not shown)) was “clearly decreased”.

`C[C@H](NC(=O)Cc1cc(F)cc(F)c1)C(=O)N[C@H]1N=C(c2ccccc2)c2ccccc2N(C)C1=O` [Compound E] was tested, and the “Prox-1 mediated induction of ephrinB2” value [2] was “inhibited”, the “Prox1 induction of Notch3 expression” value [3] was “inhibited” and the “Prox-1 mediated induction of Hey2” value [4] was “inhibited”. The “Prox-1 mediated induction of VEGFR-3” value [5] was “inhibited”.

For `Cc1cc(C)c(/C=C2\C(=O)Nc3ccccc32)[nH]1` [SU5416, reference compound], the “budding of Ad-N1IC-HUVEC versus viability” value ([1]; lower concentrations, dose-dependency (FIG. 23C)) was “selectively inhibited”, the “budding of Ad-N1IC-HUVEC” value [1, 8] was “clearly inhibited” and the “proliferation of Ad-VEGF-transduced HUVEC” value [6] was “inhibitory effect”. The “VEGF-induced CBF1 promoter / CSL-luciferase reporter activity” value [7] was “decreased”.

With `COc1cc(OC)cc(-c2cc3cnc(N)nc3nc2NC(=O)NC(C)(C)C)c1` [P13166866] the “budding of Ad-N1IC-HUVEC” value [1, 8] was “Neither P13166866 or ZD1893 affected budding”.

B1: P1GF: placental growth factor, a selective ligand for Flt1 (protein, UniProt P49763 19-221, looked up)
Placenta growth factor: LPAVPPQQWALSAGNGSSEVEVVPFQEVWGRSYCRALERLVDVVSEYPSEVEHMFSPSCVSLLRCTGCCGDENLHCVPVETANVTMQLLKIRSGDRPSYVELTFSQHVRCECRHSPGRQSPDMPGDFRADAPSFLPPRRSLPMLFRMEWGCALTGSQSAVWPSSPVPEEIPRMHPGRNGKKQQRKPLREKMKPERCGDAVPRR
B1 was tested, and the “increase of HUVEC buds containing multiple filopodia” value ([1]; 50 ng/ml P1GF, SFM) was 250% and the “increase of the number of Ad-N1IC-HUVEC buds” value ([1]; 50 ng/ml P1GF, SFM, compared to the absence of P1GF) was 150%.
